Assay results taken from US9617214B2, “Compounds for cognitive enhancement and methods of use thereof” (The Translational Genomics Research Institute, priority 2013, dated 2017).
Entries after “also recorded” stand apart in the source; their conditions may differ. Like-named read-outs stand apart in the source and are kept apart here.

Key:
H4-tau cells [1] = assay: p-tau protein to total tau protein ratio in H4-tau cells at IC10 dosage, 96-hour time course, ELISA; type: cell-based, human; settings: 96-hour time course, compared to vehicle (DMSO), two-sided t-test
Procedure: Thirteen different ROCK inhibitors were tested for their effect on the ratio of p-tau protein to total tau protein. […] Alamar Blue was used after cells were treated with the respective compounds at various dosages to determine the IC10 value. The compounds were applied to H4-tau cells over a 96-hour time course with 8 time points (at hours 12, 24, 36, 48, 60, 72, 84, and 96). At each time point, total cell protein was collected and p-tau protein and total tau protein was assessed using an enzyme-linked immunosorbent assay. The p-tau to total tau protein ratio at each time point for each drug was compared to the corresponding time point for cells treated with vehicle (DMSO) used to solubilize the respective compound.
Two-sided t-tests were used to determine significant changes in the p-tau protein to total tau protein ratio for each drug across the entire time course at each tested time point. Cells treated by drug were compared to cells treated to vehicle.

H4-tau cells [2] = assay: Validation time course in H4-tau cells at IC50 (cell survival) dosage: p-tau and total tau protein by ELISA; type: cell-based, human; settings: IC50 dosage for cell survival, over 96 hours; for concentration of total tau protein: FIG. 2; for concentration of p-tau protein: FIG. 3
Procedure: The time course was repeated using 4 biological replicates over 96 hours and 10 time points (at hours 0, 6, 12, 24, 36, 48, 60, 72, 84, and 96). Total cell protein was collected at each time point and ELISAs were used to measure p-tau protein and total tau protein.

ROCK1 [3] = target: T1, ROCK1 (Homo sapiens, UniProt Q13464); assay: ROCK1 enzyme activity at 10 μM; type: biochemical; settings: 10 μM compound
Procedure: (§1) Enzyme activity of ROCK1 and ROCK2 were studied at 10 μM to compare the inhibition activity of ROCK inhibitors. Table 2 summarizes the extent of inhibition of the compounds of the inventions.

ROCK2 [4] = target: T2, ROCK2 (Homo sapiens, UniProt O75116); assay: ROCK2 enzyme activity at 10 μM; type: biochemical; settings: 10 μM compound
Procedure: as §1

ROCK1 [5] = target: T1, ROCK1; assay: IC50 value for ROCK1 activity; type: biochemical; settings: ATP at Km (10 μM)
ROCK2 [6] = target: T2, ROCK2; assay: IC50 value for ROCK2 activity; type: biochemical; settings: ATP at Km (10 μM)
Aβ42 = settings: mouse model of AD; cited from earlier work
rats [7] = settings: cited from earlier work
rats [8] = settings: aged rats; cited from earlier work
[9] = Test 1, read-out: % enzyme activity at 10 μM ROCK1 Test 1
[10] = Test 2, read-out: % enzyme activity at 10 μM ROCK1 Test 2
[11] = Test 1, read-out: % enzyme activity at 10 μM ROCK2 Test 1
[12] = Test 2, read-out: % enzyme activity at 10 μM ROCK2 Test 2

T1 sequence (Q13464 whole entry): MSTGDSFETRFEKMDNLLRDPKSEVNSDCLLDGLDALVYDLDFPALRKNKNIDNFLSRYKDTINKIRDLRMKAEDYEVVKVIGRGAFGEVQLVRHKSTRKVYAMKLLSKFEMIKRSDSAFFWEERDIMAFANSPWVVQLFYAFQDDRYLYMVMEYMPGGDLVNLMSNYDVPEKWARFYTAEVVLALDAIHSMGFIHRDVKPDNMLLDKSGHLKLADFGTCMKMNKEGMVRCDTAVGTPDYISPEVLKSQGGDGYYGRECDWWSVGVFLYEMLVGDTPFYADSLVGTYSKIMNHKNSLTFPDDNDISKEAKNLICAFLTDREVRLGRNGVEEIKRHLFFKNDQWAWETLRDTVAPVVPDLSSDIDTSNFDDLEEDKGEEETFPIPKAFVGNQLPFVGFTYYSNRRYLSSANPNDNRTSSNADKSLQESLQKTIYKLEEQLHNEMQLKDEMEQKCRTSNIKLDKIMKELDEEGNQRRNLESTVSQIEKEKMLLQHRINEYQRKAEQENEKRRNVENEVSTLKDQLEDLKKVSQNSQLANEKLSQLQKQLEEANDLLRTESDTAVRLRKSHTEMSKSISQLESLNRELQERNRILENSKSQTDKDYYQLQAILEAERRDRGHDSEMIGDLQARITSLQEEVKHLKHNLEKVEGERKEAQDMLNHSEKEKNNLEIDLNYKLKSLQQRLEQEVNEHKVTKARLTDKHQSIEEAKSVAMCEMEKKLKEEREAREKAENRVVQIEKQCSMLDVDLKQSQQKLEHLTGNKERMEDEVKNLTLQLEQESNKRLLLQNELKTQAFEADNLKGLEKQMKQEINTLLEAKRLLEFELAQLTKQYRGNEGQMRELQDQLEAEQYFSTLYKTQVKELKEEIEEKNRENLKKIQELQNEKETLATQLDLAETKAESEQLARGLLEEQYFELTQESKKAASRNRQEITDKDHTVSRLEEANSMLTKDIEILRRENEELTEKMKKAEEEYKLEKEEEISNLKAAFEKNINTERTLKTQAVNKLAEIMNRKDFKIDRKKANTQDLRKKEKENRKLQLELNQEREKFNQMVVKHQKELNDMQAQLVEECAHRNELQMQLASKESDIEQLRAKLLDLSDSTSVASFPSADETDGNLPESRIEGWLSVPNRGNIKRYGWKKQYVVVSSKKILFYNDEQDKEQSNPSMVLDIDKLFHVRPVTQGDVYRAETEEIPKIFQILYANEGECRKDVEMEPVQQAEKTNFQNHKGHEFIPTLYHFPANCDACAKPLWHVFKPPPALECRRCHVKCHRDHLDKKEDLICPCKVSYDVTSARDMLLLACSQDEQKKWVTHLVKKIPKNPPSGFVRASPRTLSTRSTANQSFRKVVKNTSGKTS
T2 sequence (O75116 whole entry): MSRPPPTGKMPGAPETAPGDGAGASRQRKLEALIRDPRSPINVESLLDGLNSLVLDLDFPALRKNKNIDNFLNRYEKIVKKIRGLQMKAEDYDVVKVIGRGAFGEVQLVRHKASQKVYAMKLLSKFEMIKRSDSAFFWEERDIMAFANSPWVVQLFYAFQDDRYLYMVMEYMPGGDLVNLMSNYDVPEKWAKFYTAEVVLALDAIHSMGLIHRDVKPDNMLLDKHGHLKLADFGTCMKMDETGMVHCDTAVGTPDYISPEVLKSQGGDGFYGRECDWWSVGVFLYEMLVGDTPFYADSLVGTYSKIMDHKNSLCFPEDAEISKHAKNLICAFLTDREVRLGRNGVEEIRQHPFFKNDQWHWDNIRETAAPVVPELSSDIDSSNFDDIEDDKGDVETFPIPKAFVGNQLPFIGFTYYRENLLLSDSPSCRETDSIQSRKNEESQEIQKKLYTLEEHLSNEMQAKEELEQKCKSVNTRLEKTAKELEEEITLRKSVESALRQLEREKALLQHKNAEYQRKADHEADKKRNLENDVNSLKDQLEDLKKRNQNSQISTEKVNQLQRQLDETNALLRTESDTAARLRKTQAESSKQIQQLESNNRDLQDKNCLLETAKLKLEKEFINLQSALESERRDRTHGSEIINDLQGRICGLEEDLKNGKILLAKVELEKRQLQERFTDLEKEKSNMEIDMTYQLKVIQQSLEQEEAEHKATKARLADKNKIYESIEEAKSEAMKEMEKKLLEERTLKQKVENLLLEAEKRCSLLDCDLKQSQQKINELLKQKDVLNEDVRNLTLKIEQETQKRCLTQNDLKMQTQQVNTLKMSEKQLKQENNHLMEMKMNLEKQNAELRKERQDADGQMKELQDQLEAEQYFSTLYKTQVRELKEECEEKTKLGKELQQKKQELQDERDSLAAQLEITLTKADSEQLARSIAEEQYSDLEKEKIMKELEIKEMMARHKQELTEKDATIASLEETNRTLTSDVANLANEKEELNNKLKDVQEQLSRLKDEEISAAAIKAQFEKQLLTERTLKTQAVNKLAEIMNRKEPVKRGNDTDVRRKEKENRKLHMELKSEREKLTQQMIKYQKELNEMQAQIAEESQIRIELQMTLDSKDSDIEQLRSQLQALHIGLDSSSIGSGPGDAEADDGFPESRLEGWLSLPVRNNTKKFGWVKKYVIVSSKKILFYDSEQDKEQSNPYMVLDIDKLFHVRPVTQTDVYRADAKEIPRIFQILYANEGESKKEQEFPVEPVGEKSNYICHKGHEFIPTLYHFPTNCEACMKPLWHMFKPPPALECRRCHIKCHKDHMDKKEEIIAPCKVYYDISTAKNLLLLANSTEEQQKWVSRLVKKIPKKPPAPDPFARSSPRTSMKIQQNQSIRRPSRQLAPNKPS

SMILES: O=C(NCCc1cccc(Cl)c1)c1ccc(-c2ccncc2)cc1 [Compound T343]
- p-tau protein to total tau protein ratio (H4-tau cells [1]): significant decrease
- p-tau protein to total tau protein ratio (H4-tau cells [2]; 4 biological replicates, FIG. 4): significant decrease; also recorded: decreased ratio
- concentration of total tau protein (H4-tau cells [2]): lesser concentrations
- concentration of p-tau protein (H4-tau cells [2]): lesser concentrations
- remaining activity at 10 µM (ROCK1 [3]; [9]): 1.22%
- remaining activity at 10 µM (ROCK1 [3]; [10]): 1.17%
- remaining activity at 10 µM (ROCK2 [4]; [11]): 0.08%
- remaining activity at 10 µM (ROCK2 [4]; [12]): 0.56%
- IC50 (ROCK1 [5]; Test 1, read-out: IC50 (μM) ROCK1 Test 1): 0.0318 µM
- IC50 (ROCK1 [5]; Test 2, read-out: IC50 (μM) ROCK1 Test 2): 0.0227 µM
- IC50 (ROCK2 [6]; Test 1, read-out: IC50 (μM) ROCK2 Test 1): 0.0167 µM
- IC50 (ROCK2 [6]; Test 2, read-out: IC50 (μM) ROCK2 Test 2): 0.0102 µM

SMILES: O=S(=O)(c1cccc2cnccc12)N1CCCN(Cc2ccc(F)cc2)CC1 [Compound T306]
- remaining activity at 10 µM (ROCK1 [3]; [9]): 6.75%
- remaining activity at 10 µM (ROCK1 [3]; [10]): 6.94%
- remaining activity at 10 µM (ROCK2 [4]; [11]): 3.85%
- remaining activity at 10 µM (ROCK2 [4]; [12]): 3.62%

SMILES: CC(N)C1CCC(C(=O)Nc2ccncc2)CC1 (stereo not shown) [Compound Y27632, 4-(1-aminoethyl)-N-pyridin-4-yl-cyclohexane-1-carboxamide]
- brain levels of Aβ42 (Aβ42): preferentially lowered
- memory and learning (rats [7]; rats with ischemia): increased
- hyperphosphorylation of the tau protein (rats [7]; rats, hyperphosphorylation due to ischemia): decreased
- memory and learning (rats [7]; sham rats, no hyperphosphorylation of the tau protein): decreased

SMILES: O=C(Nc1cccc(-c2ccncc2)c1)C1COc2ccccc2C1 (stereo not shown) [Compound T303]
- p-tau protein to total tau protein ratio (H4-tau cells [1]): significant decrease
- remaining activity at 10 µM (ROCK1 [3]; [9]): 3.26%
- remaining activity at 10 µM (ROCK1 [3]; [10]): 2.65%
- remaining activity at 10 µM (ROCK2 [4]; [11]): 0.78%
- remaining activity at 10 µM (ROCK2 [4]; [12]): 0.55%

SMILES: O=C(Nc1ccc(-c2cn[nH]c2)cc1)C1COc2ccccc2C1 (stereo not shown) [Compound T299]
- remaining activity at 10 µM (ROCK1 [3]; [9]): 0.97%
- remaining activity at 10 µM (ROCK1 [3]; [10]): 2.38%

SMILES: O=S(=O)(c1cccc2cnccc12)N1CCCNCC1 [Fasudil, 5-(1,4-diazepan-1-ylsulfonyl)isoquinoline, reference compound]
- concentration of total tau protein (H4-tau cells [2]): lesser concentrations
- concentration of p-tau protein (H4-tau cells [2]): lesser concentrations
- learning and memory (rats [8]): increased

SMILES: CC(Cc1ccc(F)cc1)NC(=O)c1ccc(-c2ccncc2)cc1 (stereo not shown) [Compound T350]
- p-tau protein to total tau protein ratio (H4-tau cells [1]): significant decrease
